Laboratory results from US4027038A, “Complement inhibitors” (priority 1976, dated 1977).

Legend:
[1] = system: complement level in undiluted serum; experiment: Complement Level Reduction Test; settings: In Vivo; serum of dosed guinea pigs compared to undosed controls, capillary tube method
Source text: (§1) This test measures the ability of activated human C1 to destroy fluid phase human C2 in the presence of C4 and appropriate dilutions of the test compound. An active inhibitor protects C2 from C1 and C4; (ii) Test, Code 035 (C3-C9 inhibitor). This test determines the ability of the late components of human complement (C3-C9 to lyse EAC 142 in the presence of appropriate dilutions of the test compound. An active inhibitor protects EAC 142 from lysis by human C3-C9; (ii) Test, Code 036 (C-Shunt inhibitor)-- In this test human erythrocytes rendered fragile are lysed in autologous serum via the shunt pathway activated by cobra venom factor in the presence of appropriate dilutions of the test compound. Inhibition of the shunt pathway results in failure of lysis; (iv) Forssman Vasculitis Test-- Here, the well known complement dependent lesion, Forssman vasculitis, is produced in guinea pigs by intradermal injection of rabbit anti-Forssman antiserum. The lesion is measured in terms of diameter, edema and hemorrhage and the extent to which a combined index of these is inhibited by prior intraperitoneal injection of the test compound at 200 mg/kg is then reported, unless otherwise stated; (v) Forssman Shock Test-- Lethal shock is produced in guinea pigs by an i.v. injection of anti-Forssman antiserum and the harmonic mean death time of treated guinea pigs is compared with that of simultaneous controls; (vi) Complement Level Reduction Test-- In this test, the above dosed guinea pigs, or other, are bled for serum and the complement level is determined in undiluted serum by the capillary tube method of U.S. Pat. No. 3,876,376 and compared to undosed control guinea pigs; and (vii) Cap 50 Test-- Here, appropriate amounts of the test compound are added to a pool of guinea pig serum in vitro, after which the undiluted serum capillary tube assay referred to above is run. The concentration of compound inhibiting 50% is reported.

[2] = target: T1, activated human C1 (Homo sapiens, UniProt P09871); experiment: Test, Code 026 (C1 inhibitor); assay type: biochemical; settings: In Vitro; serial two-fold dilution assay, higher well number indicates higher activity
T1 sequence (P09871 438-688 limits assumed): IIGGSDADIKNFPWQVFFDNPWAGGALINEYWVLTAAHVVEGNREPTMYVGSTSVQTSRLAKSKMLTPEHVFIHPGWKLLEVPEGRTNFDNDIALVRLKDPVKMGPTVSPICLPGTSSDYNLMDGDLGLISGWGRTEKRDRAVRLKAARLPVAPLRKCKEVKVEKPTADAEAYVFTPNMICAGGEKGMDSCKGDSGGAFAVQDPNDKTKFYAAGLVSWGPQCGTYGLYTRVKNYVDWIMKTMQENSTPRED
T1 sequence (P09871 16-437 limits assumed): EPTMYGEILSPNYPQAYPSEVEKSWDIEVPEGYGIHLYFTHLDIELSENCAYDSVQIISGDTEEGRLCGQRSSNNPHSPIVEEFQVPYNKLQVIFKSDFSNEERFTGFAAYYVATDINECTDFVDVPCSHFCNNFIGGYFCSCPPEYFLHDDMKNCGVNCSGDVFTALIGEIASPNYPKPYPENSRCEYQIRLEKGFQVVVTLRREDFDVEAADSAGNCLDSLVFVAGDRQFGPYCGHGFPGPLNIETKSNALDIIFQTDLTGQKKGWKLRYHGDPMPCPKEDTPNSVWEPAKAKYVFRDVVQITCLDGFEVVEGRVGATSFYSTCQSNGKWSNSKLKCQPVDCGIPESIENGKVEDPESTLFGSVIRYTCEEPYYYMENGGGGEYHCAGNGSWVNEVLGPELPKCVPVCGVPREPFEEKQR
Source text: as §1

[3] = system: shunt pathway; experiment: Test, Code 036 (C-Shunt inhibitor), lysis of fragile human erythrocytes in autologous serum, cobra venom factor; assay type: biochemical; settings: In Vitro; serial two-fold dilution assay, higher well number indicates higher activity
Source text: as §1

[4] = system: Forssman vasculitis; experiment: Forssman Vasculitis Test; settings: In Vivo; guinea pigs; inhibition of combined index of lesion diameter, edema and hemorrhage; prior intraperitoneal injection at 200 mg/kg
Source text: as §1

[5] = system: late components of human complement (C3-C9); experiment: Test, Code 035 (C3-C9 inhibitor), lysis of EAC 142; assay type: biochemical; settings: In Vitro; serial two-fold dilution assay, higher well number indicates higher activity
Source text: as §1

| SMILES | % Reduction Complement [1] | 026 (C1 inhibitor), activity in wells [2] | 036 (C-Shunt inhibitor), activity in wells [3] | Forssman [4] | 035 (C3-C9 inhibitor), activity in wells [5] |
| --- | --- | --- | --- | --- | --- |
| O=C(Nc1cccc(C(=O)Nc2ccc3cc(S(=O)(=O)[O-])cc(S(=O)(=O)[O-])c3c2)c1)Nc1cccc(C(=O)Nc2ccc3cc(S(=O)(=O)[O-])cc(S(=O)(=O)[O-])c3c2)c1.[Na+].[Na+].[Na+].[Na+] [7,7'-[Ureylenebis(m-phenylenecarbonylimino)]di-1,3-naphthalenedisulfonic acid tetrasodium salt] | -33% | 3 wells | 1 wells | 8 | 1 wells |
| O=C(Nc1ccc(C(=O)Nc2ccc(S(=O)(=O)[O-])c3cccc(S(=O)(=O)[O-])c23)cc1)Nc1ccc(C(=O)Nc2ccc(S(=O)(=O)[O-])c3cccc(S(=O)(=O)[O-])c23)cc1.[Na+].[Na+].[Na+].[Na+] [4,4'-[Ureylenebis(p-phenylenecarbonylimino)]di-1,5-naphthalenedisulfonic acid tetrasodium salt] | +58% | NEG | NEG | 12 | NEG |
| O=C(Nc1cccc(C(=O)Nc2ccc3c(S(=O)(=O)[O-])cccc3c2S(=O)(=O)[O-])c1)Nc1cccc(C(=O)Nc2ccc3c(S(=O)(=O)[O-])cccc3c2S(=O)(=O)[O-])c1.[Na+].[Na+].[Na+].[Na+] [2,2'-[Ureylenebis(m-phenylenecarbonylimino)]di-1,5-naphthalenedisulfonic acid tetrasodium salt] | -18% | NEG | 1 wells | 10 | 1 wells |
| O=C(Nc1cccc(C(=O)Nc2ccc(S(=O)(=O)[O-])c3cccc(S(=O)(=O)[O-])c23)c1)Nc1cccc(C(=O)Nc2ccc(S(=O)(=O)[O-])c3cccc(S(=O)(=O)[O-])c23)c1.[Na+].[Na+].[Na+].[Na+] [4,4'-[Ureylenebis(m-phenylenecarbonylimino)]di-1,5-naphthalenedisulfonic acid tetrasodium salt] | -18% | 2 wells | NEG | 10 | NEG |
| O=C(Nc1cccc(C(=O)Nc2cc(S(=O)(=O)[O-])cc3cc(S(=O)(=O)[O-])ccc23)c1)Nc1cccc(C(=O)Nc2cc(S(=O)(=O)[O-])cc3cc(S(=O)(=O)[O-])ccc23)c1.[Na+].[Na+].[Na+].[Na+] [4,4'-[Ureylenebis(m-phenylenecarbonylimino)]di-2,7-naphthalenedisulfonic acid tetrasodium salt] | +4% | 3 wells | NEG | 0 | NEG |
